Where two headings read alike, the source gives them in different places.
How the values were obtained:
EGFR wildtype (WT) = EGFR wildtype (WT) (Homo sapiens, UniProt P00533); test: Biochemical EGFR kinase assay (Lance Ultra TR-FRET), wildtype
Method in brief: (§1)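 Step 1: compound in kinase buffer, 0.003–10 μM. Step 2: kinase reaction 1 h at room temperature. Step 4: TR-FRET read at 615/665 nm; IC50 calculated.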

EGFR L858R/C797S = EGFR L858R/C797S (Homo sapiens, UniProt P00533, C797S/L858R); test: Biochemical EGFR kinase assay (Lance Ultra TR-FRET), double mutant L858R/C797S
Sequence of EGFR L858R/C797S (P00533 25-1210 C797S/L858R): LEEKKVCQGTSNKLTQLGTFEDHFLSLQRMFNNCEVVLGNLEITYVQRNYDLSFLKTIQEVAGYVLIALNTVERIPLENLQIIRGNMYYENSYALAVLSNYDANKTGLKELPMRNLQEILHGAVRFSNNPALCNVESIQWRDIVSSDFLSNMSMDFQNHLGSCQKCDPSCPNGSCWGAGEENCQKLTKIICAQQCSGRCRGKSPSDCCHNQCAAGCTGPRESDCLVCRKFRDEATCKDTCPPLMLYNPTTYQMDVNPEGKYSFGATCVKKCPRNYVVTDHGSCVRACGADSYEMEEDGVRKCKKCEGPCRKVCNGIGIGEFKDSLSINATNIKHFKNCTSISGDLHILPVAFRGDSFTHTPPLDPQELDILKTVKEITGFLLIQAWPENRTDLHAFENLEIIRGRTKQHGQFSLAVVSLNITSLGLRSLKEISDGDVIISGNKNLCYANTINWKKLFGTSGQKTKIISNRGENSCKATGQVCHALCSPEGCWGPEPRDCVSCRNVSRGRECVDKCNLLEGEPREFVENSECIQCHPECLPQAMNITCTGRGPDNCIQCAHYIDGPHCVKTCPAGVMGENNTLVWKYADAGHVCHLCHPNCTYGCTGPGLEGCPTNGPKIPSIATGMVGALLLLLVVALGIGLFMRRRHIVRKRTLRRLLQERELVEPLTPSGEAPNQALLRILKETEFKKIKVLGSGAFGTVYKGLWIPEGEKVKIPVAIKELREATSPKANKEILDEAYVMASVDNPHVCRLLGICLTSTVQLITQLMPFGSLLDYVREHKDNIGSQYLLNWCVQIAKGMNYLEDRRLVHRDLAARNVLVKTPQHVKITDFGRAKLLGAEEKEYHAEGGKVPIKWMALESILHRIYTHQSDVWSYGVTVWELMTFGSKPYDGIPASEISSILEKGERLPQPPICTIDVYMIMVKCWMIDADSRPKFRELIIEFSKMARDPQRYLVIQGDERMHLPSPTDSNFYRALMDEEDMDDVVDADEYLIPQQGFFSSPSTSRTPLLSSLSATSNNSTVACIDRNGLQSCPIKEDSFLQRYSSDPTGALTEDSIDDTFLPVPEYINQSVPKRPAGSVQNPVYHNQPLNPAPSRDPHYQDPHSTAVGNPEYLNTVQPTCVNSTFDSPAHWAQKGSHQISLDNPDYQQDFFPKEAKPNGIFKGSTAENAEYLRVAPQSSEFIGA
Method in brief: as §1

EGFR del19/C797S = EGFR del19/C797S (Homo sapiens, UniProt P00533, C797S/DEL746-750); test: Biochemical EGFR kinase assay (Lance Ultra TR-FRET), double mutant del19/C797S
Sequence of EGFR del19/C797S (P00533 with tags, fused parts or gaps DEL746-750/C797S): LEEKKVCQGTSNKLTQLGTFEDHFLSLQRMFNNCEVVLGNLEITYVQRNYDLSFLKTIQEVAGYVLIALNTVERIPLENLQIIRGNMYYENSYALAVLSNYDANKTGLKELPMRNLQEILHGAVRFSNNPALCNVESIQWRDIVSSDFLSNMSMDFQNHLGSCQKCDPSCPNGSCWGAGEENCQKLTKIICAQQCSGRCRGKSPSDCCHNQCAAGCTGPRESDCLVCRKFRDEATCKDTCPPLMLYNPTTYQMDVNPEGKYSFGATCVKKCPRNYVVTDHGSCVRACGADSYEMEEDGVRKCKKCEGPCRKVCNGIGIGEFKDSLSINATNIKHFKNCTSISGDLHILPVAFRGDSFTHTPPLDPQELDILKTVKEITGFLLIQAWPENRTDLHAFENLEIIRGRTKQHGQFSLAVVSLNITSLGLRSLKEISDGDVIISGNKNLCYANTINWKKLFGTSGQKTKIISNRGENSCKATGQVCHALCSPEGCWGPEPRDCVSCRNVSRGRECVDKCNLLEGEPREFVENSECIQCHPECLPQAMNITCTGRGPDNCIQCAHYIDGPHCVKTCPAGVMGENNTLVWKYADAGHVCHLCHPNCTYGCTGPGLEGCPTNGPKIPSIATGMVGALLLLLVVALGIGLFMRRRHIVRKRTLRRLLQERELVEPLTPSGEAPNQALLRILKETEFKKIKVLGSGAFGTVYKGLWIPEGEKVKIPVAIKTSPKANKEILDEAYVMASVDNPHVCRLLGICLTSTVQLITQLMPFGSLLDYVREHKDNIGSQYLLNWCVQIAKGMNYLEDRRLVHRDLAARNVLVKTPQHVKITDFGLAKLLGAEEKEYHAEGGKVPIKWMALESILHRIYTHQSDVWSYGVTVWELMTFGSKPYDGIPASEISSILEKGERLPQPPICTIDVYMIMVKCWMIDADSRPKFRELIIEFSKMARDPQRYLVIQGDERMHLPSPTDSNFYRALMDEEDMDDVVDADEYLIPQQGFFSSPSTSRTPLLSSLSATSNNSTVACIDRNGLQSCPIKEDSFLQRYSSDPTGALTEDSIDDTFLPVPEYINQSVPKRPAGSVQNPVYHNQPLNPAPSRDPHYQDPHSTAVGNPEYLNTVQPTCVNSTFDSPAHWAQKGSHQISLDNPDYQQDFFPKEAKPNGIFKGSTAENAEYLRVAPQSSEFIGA
Method in brief: as §1

EGFR del19/T790M/C797S = EGFR del19/T790M/C797S (Homo sapiens, UniProt P00533, C797S/DEL746-750/T790M); test: Biochemical EGFR kinase assay (Lance Ultra TR-FRET), triple mutant del19/T790M/C797S
Sequence of EGFR del19/T790M/C797S (P00533 with tags, fused parts or gaps DEL746-750/T790M/C797S): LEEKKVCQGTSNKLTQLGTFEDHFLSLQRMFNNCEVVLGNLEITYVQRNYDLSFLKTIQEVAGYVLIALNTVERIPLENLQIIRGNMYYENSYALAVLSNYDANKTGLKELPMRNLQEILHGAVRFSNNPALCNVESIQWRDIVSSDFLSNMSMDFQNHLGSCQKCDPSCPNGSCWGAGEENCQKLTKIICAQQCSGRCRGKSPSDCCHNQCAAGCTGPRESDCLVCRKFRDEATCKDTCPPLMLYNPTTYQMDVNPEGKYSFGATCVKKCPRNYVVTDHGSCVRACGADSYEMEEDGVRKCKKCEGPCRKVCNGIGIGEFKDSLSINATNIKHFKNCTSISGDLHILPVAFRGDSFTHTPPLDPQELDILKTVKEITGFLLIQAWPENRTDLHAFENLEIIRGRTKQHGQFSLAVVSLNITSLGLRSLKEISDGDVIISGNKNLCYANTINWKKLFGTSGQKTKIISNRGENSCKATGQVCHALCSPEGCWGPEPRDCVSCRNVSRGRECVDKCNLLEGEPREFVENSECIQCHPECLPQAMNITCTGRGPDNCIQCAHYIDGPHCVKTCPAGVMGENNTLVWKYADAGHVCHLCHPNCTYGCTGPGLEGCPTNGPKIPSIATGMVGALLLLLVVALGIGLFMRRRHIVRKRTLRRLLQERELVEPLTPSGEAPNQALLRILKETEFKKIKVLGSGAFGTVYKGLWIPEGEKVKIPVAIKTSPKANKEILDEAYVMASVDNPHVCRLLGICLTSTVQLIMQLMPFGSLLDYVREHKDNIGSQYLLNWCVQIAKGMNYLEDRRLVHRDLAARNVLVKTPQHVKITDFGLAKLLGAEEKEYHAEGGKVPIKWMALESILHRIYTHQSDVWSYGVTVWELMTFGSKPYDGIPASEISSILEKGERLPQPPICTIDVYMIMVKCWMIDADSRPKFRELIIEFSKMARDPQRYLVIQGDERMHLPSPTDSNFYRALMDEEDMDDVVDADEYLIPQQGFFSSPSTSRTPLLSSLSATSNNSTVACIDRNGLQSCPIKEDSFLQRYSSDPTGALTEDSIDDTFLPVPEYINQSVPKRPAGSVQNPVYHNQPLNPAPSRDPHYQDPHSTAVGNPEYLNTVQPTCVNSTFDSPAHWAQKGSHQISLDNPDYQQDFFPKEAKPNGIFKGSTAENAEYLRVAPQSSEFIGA
Method in brief: as §1

EGFR L858R/T790M/C797S = EGFR L858R/T790M/C797S (Homo sapiens, UniProt P00533, C797S/L858R/T790M); test: Biochemical EGFR kinase assay (Lance Ultra TR-FRET), triple mutant L858R/T790M/C797S
Method in brief: as §1

[1] = IC50 WT (nM) 100 μM ATP, 100 μM ATP
[2] = IC50 L858R/C797S (nM) 100 μM ATP, 100 μM ATP
[3] = IC50 del19/C797S (nM) 100 μM ATP, 100 μM ATP
[4] = IC50 del19/T790M/C797S (nM) 100 μM ATP, 100 μM ATP
[5] = IC50 L858R/T790M/C797S (nM) 100 μM ATP, 100 μM ATP
[6] = Km ATP, read-out: IC50 WT (nM) Km ATP
[7] = Km ATP, read-out: IC50 L858R/C797S (nM) Km ATP
[8] = Km ATP, read-out: IC50 del19/C797S (nM) Km ATP
[9] = Km ATP, read-out: IC50 del19/T790M/C797S (nM) Km ATP
[10] = Km ATP, read-out: IC50 L858R/T790M/C797S (nM) Km ATP

Sequence of EGFR wildtype (WT) (P00533 25-1210): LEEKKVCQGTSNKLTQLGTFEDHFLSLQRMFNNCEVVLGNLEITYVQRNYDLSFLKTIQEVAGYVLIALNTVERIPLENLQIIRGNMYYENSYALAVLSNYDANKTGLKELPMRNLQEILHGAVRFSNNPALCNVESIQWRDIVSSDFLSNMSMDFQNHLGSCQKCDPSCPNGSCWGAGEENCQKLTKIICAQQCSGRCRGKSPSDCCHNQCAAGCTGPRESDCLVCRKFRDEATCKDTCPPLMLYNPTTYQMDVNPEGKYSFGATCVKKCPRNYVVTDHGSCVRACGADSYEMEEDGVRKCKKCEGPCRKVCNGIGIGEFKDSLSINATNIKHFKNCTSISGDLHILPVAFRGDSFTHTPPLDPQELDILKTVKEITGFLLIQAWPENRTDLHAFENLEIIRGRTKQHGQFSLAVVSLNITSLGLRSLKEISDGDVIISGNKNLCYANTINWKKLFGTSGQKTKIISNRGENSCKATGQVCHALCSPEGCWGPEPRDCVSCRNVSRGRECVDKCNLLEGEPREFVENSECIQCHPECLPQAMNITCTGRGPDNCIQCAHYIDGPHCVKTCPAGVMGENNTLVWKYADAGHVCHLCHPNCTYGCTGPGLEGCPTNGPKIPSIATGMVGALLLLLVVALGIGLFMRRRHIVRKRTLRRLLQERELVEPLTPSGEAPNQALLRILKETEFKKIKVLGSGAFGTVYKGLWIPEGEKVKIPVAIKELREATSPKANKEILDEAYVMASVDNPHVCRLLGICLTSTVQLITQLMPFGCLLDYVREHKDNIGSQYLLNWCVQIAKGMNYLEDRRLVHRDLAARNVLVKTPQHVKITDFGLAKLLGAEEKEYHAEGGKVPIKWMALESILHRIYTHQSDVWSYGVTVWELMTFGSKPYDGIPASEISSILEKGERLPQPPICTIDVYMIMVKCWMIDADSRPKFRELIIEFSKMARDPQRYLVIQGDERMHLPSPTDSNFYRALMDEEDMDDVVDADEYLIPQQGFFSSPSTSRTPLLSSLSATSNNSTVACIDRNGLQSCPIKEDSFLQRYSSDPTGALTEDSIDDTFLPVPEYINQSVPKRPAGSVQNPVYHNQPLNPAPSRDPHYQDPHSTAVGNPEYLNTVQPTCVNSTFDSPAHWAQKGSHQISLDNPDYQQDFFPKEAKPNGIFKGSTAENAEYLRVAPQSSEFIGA

SMILES	IC50 (EGFR wildtype (WT); [1]) [nM]	IC50 (EGFR L858R/C797S; [2]) [nM]	IC50 (EGFR del19/C797S; [3]) [nM]	IC50 (EGFR del19/T790M/C797S; [4]) [nM]	IC50 (EGFR L858R/T790M/C797S; [5]) [nM]	IC50 (EGFR wildtype (WT); read-out: IC50 WT (nM) 100 μM ATP, 100 μM ATP) [nM]	IC50 (EGFR L858R/C797S; read-out: IC50 L858R/C797S (nM) 100 μM ATP, 100 μM ATP) [nM]	IC50 (EGFR del19/C797S; read-out: IC50 del19/C797S (nM) 100 μM ATP, 100 μM ATP) [nM]	IC50 (EGFR del19/T790M/C797S; read-out: IC50 del19/T790M/C797S (nM) 100 μM ATP, 100 μM ATP) [nM]	IC50 (EGFR L858R/T790M/C797S; read-out: IC50 L858R/T790M/C797S (nM) 100 μM ATP, 100 μM ATP) [nM]	IC50 (EGFR wildtype (WT); [6]) [nM]	IC50 (EGFR L858R/C797S; [7]) [nM]	IC50 (EGFR del19/C797S; [8]) [nM]	IC50 (EGFR del19/T790M/C797S; [9]) [nM]	IC50 (EGFR L858R/T790M/C797S; [10]) [nM]
Cn1ccc(-c2cnc(Nc3ccnc(-c4cnn(S(=O)(=O)C5CC5)c4)n3)cc2N[C@H]2CC[C@](O)(C(F)(F)F)CC2)n1 [Example 94, (1s,4s)-4-((2-((2-(1-(Cyclopropylsulfonyl)-1H-pyrazol-4-yl)pyrimidin-4-yl)amino)-5-(1-methyl-1H-pyrazol-3-yl)pyridin-4-yl)amino)-1-(trifluoromethyl)cyclohexan-1-ol]						> 10000	58.1	54.1	3.4	4					
O=S(=O)(C1CC1)n1cc(-c2nccc(Nc3cc(NC4CCC(NCCO)CC4)c(-c4csc(C(F)(F)F)n4)cn3)n2)cn1 (centres unmarked) [Example 97, 2-((4-((2-((2-(1-(Cyclopropylsulfonyl)-1H-pyrazol-4-yl)pyrimidin-4-yl)amino)-5-(2-(trifluoromethyl)thiazol-4-yl)pyridin-4-yl)amino)cyclohexyl)amino)ethan-1-ol]	> 10000	160	18	0.7	3.2										
CCOC(=O)c1ccn(-c2cnc(Nc3ccnc(-c4cnn(S(=O)(=O)C5CC5)c4)n3)cc2N[C@H]2CC[C@@](C)(O)CC2)n1 [Example 102, Ethyl 1-(6-((2-(1-(cyclopropylsulfonyl)-1H-pyrazol-4-yl)pyrimidin-4-yl)amino)-4-(((1s,4s)-4-hydroxy-4-methylcyclohexyl)amino)pyridin-3-yl)-1H-pyrazole-3-carboxylate]	> 10000	123	10.6	0.4	0.6						183	4.4	6.3	0.5	0.3
O=S(=O)(C1CC1)n1cc(-c2nccc(Nc3cc(NC4CC5(CC(O)C5)C4)c(-c4ccn(C(F)F)n4)cn3)n2)cn1 (centres unmarked) [Example 103, 6-((2-((2-(1-(Cyclopropylsulfonyl)-1H-pyrazol-4-yl)pyrimidin-4-yl)amino)-5-(1-(difluoromethyl)-1H-pyrazol-3-yl)pyridin-4-yl)amino)spiro[3.3]heptan-2-ol]											58.2	24	31	0.8	0.4
COCC#Cc1nccc(Nc2cc(NC3CCC(C)(O)CC3)c(-c3ccn(C(F)F)n3)cn2)n1 (centres unmarked) [Example 104, (1s,4s)-4-((5-(1-(Difluoromethyl)-1H-pyrazol-3-yl)-2-((2-(3-methoxyprop-1-yn-1-yl)pyrimidin-4-yl)amino)pyridin-4-yl)amino)-1-methylcyclohexan-1-ol]											984	15.6	949	4.3	5.9
CC1CC(Nc2cc(Nc3ccnc(-c4cnn(S(=O)(=O)C5CC5)c4)n3)ncc2-c2ccn(C(F)F)n2)CCC1O (centres unmarked) [Example 105, 4-((2-((2-(1-(Cyclopropylsulfonyl)-1H-pyrazol-4-yl)pyrimidin-4-yl)amino)-5-(1-(difluoromethyl)-1H-pyrazol-3-yl)pyridin-4-yl)amino)-2-methylcyclohexan-1-ol]	> 10000	1100	73	6.2	4.8						73.2	50.7	48.2	7.7	2.5

More lines, now with the values ahead:

IC50 (EGFR wildtype (WT); [1]) [nM]	IC50 (EGFR L858R/C797S; [2]) [nM]	IC50 (EGFR del19/C797S; [3]) [nM]	IC50 (EGFR del19/T790M/C797S; [4]) [nM]	IC50 (EGFR L858R/T790M/C797S; [5]) [nM]	IC50 (EGFR wildtype (WT); read-out: IC50 WT (nM) 100 μM ATP, 100 μM ATP) [nM]	IC50 (EGFR L858R/C797S; read-out: IC50 L858R/C797S (nM) 100 μM ATP, 100 μM ATP) [nM]	IC50 (EGFR del19/C797S; read-out: IC50 del19/C797S (nM) 100 μM ATP, 100 μM ATP) [nM]	IC50 (EGFR del19/T790M/C797S; read-out: IC50 del19/T790M/C797S (nM) 100 μM ATP, 100 μM ATP) [nM]	IC50 (EGFR L858R/T790M/C797S; read-out: IC50 L858R/T790M/C797S (nM) 100 μM ATP, 100 μM ATP) [nM]	IC50 (EGFR wildtype (WT); [6]) [nM]	IC50 (EGFR L858R/C797S; [7]) [nM]	IC50 (EGFR del19/C797S; [8]) [nM]	IC50 (EGFR del19/T790M/C797S; [9]) [nM]	IC50 (EGFR L858R/T790M/C797S; [10]) [nM]	SMILES
> 10000	232	82.5	1.3	3.8											Cc1ncc(-c2cnc(Nc3ccnc(-c4cnn(S(=O)(=O)C5CC5)c4)n3)cc2N2CCC(O)CC2)s1 [Example 89, 1-(2-((2-(1-Cyclopropylsulfonylpyrazol-4-yl)pyrimidin-4-yl)amino)-5-(2-methylthiazol-5-yl)-4-pyridyl)piperidin-4-ol]
> 10000	1490	367	2.6	7.1											CC(C)(CO)CNc1cc(Nc2ccnc(-c3cnn(S(=O)(=O)C4CC4)c3)n2)ncc1-c1csc(C(C)(C)O)n1 [Example 90, 3-((2-((2-(1-(Cyclopropylsulfonyl)-1H-pyrazol-4-yl)pyrimidin-4-yl)amino)-5-(2-(2-hydroxypropan-2-yl)thiazol-4-yl)pyridin-4-yl)amino)-2,2-dimethylpropan-1-ol]
> 10000	8.7	0.8	1	2.3											CC(C)(O)c1nc(-c2cnc(Nc3ccnc(-c4cnn(S(=O)(=O)C5CC5)c4)n3)cc2N[C@H]2CCC[C@H](O)C2)cs1 [Example 91, (1S,3S)-3-((2-((2-(1-(Cyclopropylsulfonyl)-1H-pyrazol-4-yl)pyrimidin-4-yl)amino)-5-(2-(2-hydroxypropan-2-yl)thiazol-4-yl)pyridin-4-yl)amino) cyclohexan-1-ol]
> 10000	103	10	2.6	7.7											CC(C)Nc1cc(Nc2ccnc(-c3cnn(S(=O)(=O)C4CC4)c3)n2)ncc1-c1csc(C(C)(C)O)n1 [Example 92, 2-(4-(6-((2-(1-(Cyclopropylsulfonyl)-1H-pyrazol-4-yl)pyrimidin-4-yl)amino)-4-(isopropylamino)pyridin-3-yl)thiazol-2-yl)propan-2-ol]
> 10000	45.2	57.7	1.3	1.9											CC(O)C(C)(C)Nc1cc(Nc2ccnc(-c3cnn(S(=O)(=O)C4CC4)c3)n2)ncc1-c1ccn(C)n1 (centres unmarked) [Example 95, 3-((2-((2-(1-(Cyclopropylsulfonyl)-1H-pyrazol-4-yl)pyrimidin-4-yl)amino)-5-(1-methyl-1H-pyrazol-3-yl)pyridin-4-yl)amino)-3-methylbutan-2-ol]
> 10000	690	159	3.5	6.2						418	22.7	89.1	2.7	2	O=S(=O)(C1CC1)n1cc(-c2nccc(Nc3cc(N[C@@H]4CCC[C@H](O)C4)c(-c4csc(C(F)(F)F)n4)cn3)n2)cn1 [Example 96, (1S,3R)-3-((2-((2-(1-(Cyclopropylsulfonyl)-1H-pyrazol-4-yl)pyrimidin-4-yl)amino)-5-(2-(trifluoromethyl)thiazol-4-yl)pyridin-4-yl)amino)cyclohexan-1-ol]
1410	7.7	1.9	0.7	2.7											CN(C)CCNC1CCC(Nc2cc(Nc3ccnc(-c4cnn(S(=O)(=O)C5CC5)c4)n3)ncc2-c2csc(C(F)(F)F)n2)CC1 (centres unmarked) [Example 98, N^2-(2-(1-(Cyclopropylsulfonyl)-1H-pyrazol-4-yl)pyrimidin-4-yl)-N^4-(4-((2-(dimethylamino)ethyl)amino)cyclohexyl)-5-(2-(trifluoromethyl)thiazol-4-yl)pyridine-2,4-diamine]
612	4.8	1.7	0.5	0.8											CN(C)CCNC1CCC(Nc2cc(Nc3ccnc(-c4cnn(S(=O)(=O)C5CC5)c4)n3)ncc2-c2ccn(C(F)F)n2)CC1 (centres unmarked) [Example 99, N^2-(2-(1-(cyclopropylsulfonyl)-1H-pyrazol-4-yl)pyrimidin-4-yl)-5-(1-(difluoromethyl)-1H-pyrazol-3-yl)-N4-(4-((2-(dimethylamino)ethyl)amino)cyclohexyl)pyridine-2,4-diamine]
582	1.4	0.4	0.6	0.5						1	0.3	0.5	0.5	0.3	CN(C)C[C@H]1CC[C@H](CNc2cc(Nc3ccnc(-c4cnn(S(=O)(=O)C5CC5)c4)n3)ncc2-c2ccn(C(F)F)n2)CC1 [Example 100, N^2-(2-(1-(Cyclopropylsulfonyl)-1H-pyrazol-4-yl)pyrimidin-4-yl)-5-(1-(difluoromethyl)-1H-pyrazol-3-yl)-N^4-(((1r,4r)-4-((dimethylamino)methyl)cyclohexyl)methyl)pyridine-2,4-diamine]
828	3.8	0.4	0.3	0.3							0.8	0.4	0.3	0.1	CN(C)C[C@H]1CC[C@H](CNc2cc(Nc3ccnc(-c4cnn(S(=O)(=O)C5CC5)c4)n3)ncc2-c2csc(C(F)(F)F)n2)CC1 [Example 101, N^2-(2-(1-(Cyclopropylsulfonyl)-1H-pyrazol-4-yl)pyrimidin-4-yl)-N^4-(((1r,4r)-4-((dimethylamino)methyl)cyclohexyl)methyl)-5-(2-(trifluoromethyl)thiazol-4-yl)pyridine-2,4-diamine]

Source: patent publication US12258327B2, “5-membered heteroaryl-containing aminopyridine compounds as EGFR inhibitors” (YUHAN CORPORATION, priority 2021, dated 2025)
